Test results published in ChEMBL document CHEMBL5214938, “Design, synthesis and biological evaluation of pteridine-7(8H)-one derivatives as potent and selective CDK4/6 inhibitors” (Bioorg Med Chem Lett, 2022).
Each block holds one compound with its values, some of them ahead of it.

Columns and labels:
[1] = target: Cyclin-dependent kinase 4/cyclin D1 (Homo sapiens, UniProt P11802); assay: Inhibition of CDK4/cyclin D1 (unknown origin); type: protein-complex assay
CDK6/cyclin D1 = CDK6/cyclin D1 (Homo sapiens, UniProt Q00534); assay: Inhibition of CDK6/cyclin D1 (unknown origin); type: protein-complex assay
Sequence of CDK6/cyclin D1 (P24385 whole entry): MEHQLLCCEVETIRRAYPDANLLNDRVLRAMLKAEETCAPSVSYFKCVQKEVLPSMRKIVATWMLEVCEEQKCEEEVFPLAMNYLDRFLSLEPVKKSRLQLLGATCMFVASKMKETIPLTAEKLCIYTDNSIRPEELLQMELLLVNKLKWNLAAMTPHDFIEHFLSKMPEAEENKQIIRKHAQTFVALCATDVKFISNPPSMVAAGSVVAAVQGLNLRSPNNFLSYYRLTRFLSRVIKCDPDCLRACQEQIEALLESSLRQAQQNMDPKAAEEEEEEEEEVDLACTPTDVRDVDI
Sequence of CDK6/cyclin D1 (Q00534 whole entry): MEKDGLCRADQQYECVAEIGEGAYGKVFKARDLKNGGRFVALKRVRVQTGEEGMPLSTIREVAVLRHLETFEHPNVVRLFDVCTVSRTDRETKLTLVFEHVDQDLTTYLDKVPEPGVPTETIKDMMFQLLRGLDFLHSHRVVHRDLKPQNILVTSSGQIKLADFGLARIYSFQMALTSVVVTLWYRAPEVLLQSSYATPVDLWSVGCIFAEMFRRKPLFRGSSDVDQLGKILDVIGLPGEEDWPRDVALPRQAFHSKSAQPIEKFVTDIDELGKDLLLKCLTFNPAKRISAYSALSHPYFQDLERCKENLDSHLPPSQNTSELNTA

A549 = assay: Antiproliferative activity against human A549 cells assessed as growth inhibition by CCK-8 assay; type: functional, cell-based
HT-29 [2] = assay: Antiproliferative activity against human HT-29 cells assessed as growth inhibition by CCK-8 assay; type: functional, cell-based
HCT-116 [3] = assay: Antiproliferative activity against human HCT-116 cells assessed as growth inhibition by CCK-8 assay; type: functional, cell-based
[4] = Inhibition of CDK1/cyclin B (unknown origin); design: species or system Homo sapiens
CDK7/Cyclin H/MNAT1 = CDK7/Cyclin H/MNAT1 (Homo sapiens, UniProt P50613); assay: Inhibition of CDK7/cyclin H/MAT1 (unknown origin); type: protein-complex assay
Sequence of CDK7/Cyclin H/MNAT1 (P51946 whole entry): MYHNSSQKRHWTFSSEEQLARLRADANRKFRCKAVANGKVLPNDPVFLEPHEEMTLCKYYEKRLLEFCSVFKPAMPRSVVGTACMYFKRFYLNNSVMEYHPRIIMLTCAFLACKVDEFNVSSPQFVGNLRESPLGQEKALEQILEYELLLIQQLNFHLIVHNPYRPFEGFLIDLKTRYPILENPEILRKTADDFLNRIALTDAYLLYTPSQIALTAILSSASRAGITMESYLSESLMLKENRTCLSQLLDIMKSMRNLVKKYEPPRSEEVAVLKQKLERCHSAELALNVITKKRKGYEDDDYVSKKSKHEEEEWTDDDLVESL
Sequence of CDK7/Cyclin H/MNAT1 (P50613 whole entry): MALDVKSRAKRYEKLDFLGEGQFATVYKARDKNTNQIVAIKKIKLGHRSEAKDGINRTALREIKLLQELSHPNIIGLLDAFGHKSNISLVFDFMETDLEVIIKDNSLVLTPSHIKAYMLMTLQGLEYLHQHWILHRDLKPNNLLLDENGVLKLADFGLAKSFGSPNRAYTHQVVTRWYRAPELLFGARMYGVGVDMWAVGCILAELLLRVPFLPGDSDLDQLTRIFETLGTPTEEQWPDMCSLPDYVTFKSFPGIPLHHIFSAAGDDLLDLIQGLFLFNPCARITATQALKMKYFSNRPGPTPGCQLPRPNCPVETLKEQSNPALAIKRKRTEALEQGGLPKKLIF
Sequence of CDK7/Cyclin H/MNAT1 (P51948 whole entry, further chain): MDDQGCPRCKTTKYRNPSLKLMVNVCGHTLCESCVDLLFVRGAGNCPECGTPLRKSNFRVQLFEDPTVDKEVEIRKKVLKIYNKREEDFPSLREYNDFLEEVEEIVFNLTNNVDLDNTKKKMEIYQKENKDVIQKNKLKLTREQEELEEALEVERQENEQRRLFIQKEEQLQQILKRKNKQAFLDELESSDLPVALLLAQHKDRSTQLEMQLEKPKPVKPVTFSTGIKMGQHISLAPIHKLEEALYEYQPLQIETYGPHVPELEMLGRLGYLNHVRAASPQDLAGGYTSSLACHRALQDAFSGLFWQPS

HCT-116 [5] = assay: Induction of apoptosis in human HCT-116 cells assessed as necrotic cells at 1 uM by flow cytometry (Rvb=1.57%); type: functional
HCT-116 [6] = assay: Induction of apoptosis in human HCT-116 cells assessed as late apoptotic cells at 1 uM by flow cytometry (Rvb=4.92%); type: functional
HT-29 [7] = assay: Induction of apoptosis in human HT-29 cells assessed as viable cells at 5 uM by flow cytometry (Rvb=83.94%); type: functional; conditions: read-out: Activity
HT-29 [8] = assay: Induction of apoptosis in human HT-29 cells assessed as necrotic cells at 1 uM by flow cytometry (Rvb=2.35%); type: functional
HT-29 [9] = assay: Induction of apoptosis in human HT-29 cells assessed as necrotic cells at 5 uM by flow cytometry (Rvb=2.35%); type: functional
HT-29 [10] = assay: Induction of apoptosis in human HT-29 cells assessed as late apoptotic cells at 1 uM by flow cytometry (Rvb=5.03%); type: functional
HT-29 [11] = assay: Induction of apoptosis in human HT-29 cells assessed as early apoptotic cells at 5 uM by flow cytometry (Rvb=8.68%); type: functional
HT-29 [12] = assay: Induction of apoptosis in human HT-29 cells assessed as early apoptotic cells at 1 uM by flow cytometry (Rvb=8.68%); type: functional
MDA-MB-231 [13] = assay: Induction of apoptosis in human MDA-MB-231 cells assessed as necrotic cells at 1 uM by flow cytometry (Rvb=4.37%); type: functional
HCT-116 [14] = assay: Induction of apoptosis in human HCT-116 cells assessed as viable cells at 5 uM by flow cytometry (Rvb=86.61%); type: functional; conditions: read-out: Activity
MDA-MB-231 [15] = assay: Induction of apoptosis in human MDA-MB-231 cells assessed as viable cells at 1 uM by flow cytometry (Rvb=92.08%); type: functional; conditions: read-out: Activity
MDA-MB-231 [16] = assay: Induction of apoptosis in human MDA-MB-231 cells assessed as early apoptotic cells at 1 uM by flow cytometry (Rvb=2.93%); type: functional
[17] = target: Cyclin-dependent kinase 2/cyclin E1 (Homo sapiens, UniProt P24941); assay: Inhibition of CDK2/cyclin E1 (unknown origin); type: protein-complex assay
CDK9/cyclin T1 = CDK9/cyclin T1 (Homo sapiens, UniProt P50750); assay: Inhibition of CDK9/cyclin T1 (unknown origin); type: protein-complex assay
Sequence of CDK9/cyclin T1 (O60563 whole entry): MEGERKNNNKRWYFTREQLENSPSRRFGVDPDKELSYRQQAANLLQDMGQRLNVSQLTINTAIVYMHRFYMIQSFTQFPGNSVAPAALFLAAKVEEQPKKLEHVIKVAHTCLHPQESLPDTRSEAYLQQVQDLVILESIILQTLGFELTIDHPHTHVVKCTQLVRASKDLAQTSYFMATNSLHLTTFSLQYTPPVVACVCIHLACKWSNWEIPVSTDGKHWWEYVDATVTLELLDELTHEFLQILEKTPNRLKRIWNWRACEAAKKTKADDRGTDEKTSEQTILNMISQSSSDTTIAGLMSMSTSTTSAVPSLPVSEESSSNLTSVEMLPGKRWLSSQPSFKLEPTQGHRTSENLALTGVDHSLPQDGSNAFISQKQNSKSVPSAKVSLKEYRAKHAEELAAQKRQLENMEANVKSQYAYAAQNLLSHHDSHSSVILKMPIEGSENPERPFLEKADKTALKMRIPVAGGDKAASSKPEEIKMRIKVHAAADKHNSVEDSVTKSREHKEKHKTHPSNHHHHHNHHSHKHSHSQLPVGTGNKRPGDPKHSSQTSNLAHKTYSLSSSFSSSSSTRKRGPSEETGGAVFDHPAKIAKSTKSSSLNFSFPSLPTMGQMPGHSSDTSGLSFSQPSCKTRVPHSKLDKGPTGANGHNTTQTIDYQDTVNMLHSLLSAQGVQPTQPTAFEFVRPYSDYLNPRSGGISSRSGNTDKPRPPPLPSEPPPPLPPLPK
Sequence of CDK9/cyclin T1 (P50750 whole entry): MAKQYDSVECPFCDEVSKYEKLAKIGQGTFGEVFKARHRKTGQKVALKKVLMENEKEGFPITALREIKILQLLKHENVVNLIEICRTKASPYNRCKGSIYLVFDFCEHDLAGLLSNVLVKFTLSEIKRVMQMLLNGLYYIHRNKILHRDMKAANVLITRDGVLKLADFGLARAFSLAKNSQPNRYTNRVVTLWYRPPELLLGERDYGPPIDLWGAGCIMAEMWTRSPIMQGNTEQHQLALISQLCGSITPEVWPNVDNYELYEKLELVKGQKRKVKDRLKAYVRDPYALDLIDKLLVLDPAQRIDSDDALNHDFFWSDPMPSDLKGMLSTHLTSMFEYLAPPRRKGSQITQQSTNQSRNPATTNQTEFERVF

MDA-MB-231 [18] = assay: Induction of apoptosis in human MDA-MB-231 cells assessed as early apoptotic cells at 5 uM by flow cytometry (Rvb=2.93%); type: functional
HCT-116 [19] = assay: Induction of apoptosis in human HCT-116 cells assessed as late apoptotic cells at 5 uM by flow cytometry (Rvb=4.92%); type: functional
HT-29 [20] = assay: Induction of apoptosis in human HT-29 cells assessed as late apoptotic cells at 5 uM by flow cytometry (Rvb=5.03%); type: functional
HCT-116 [21] = assay: Induction of apoptosis in human HCT-116 cells assessed as early apoptotic cells at 5 uM by flow cytometry (Rvb=6.90%); type: functional
MDA-MB-231 [22] = assay: Induction of apoptosis in human MDA-MB-231 cells assessed as necrotic cells at 5 uM by flow cytometry (Rvb=4.37%); type: functional
MDA-MB-231 [23] = assay: Induction of apoptosis in human MDA-MB-231 cells assessed as viable cells at 5 uM by flow cytometry (Rvb=92.08%); type: functional; conditions: read-out: Activity
HCT-116 [24] = assay: Induction of apoptosis in human HCT-116 cells assessed as necrotic cells at 5 uM by flow cytometry (Rvb=1.57%); type: functional
MDA-MB-231 [25] = assay: Induction of apoptosis in human MDA-MB-231 cells assessed as late apoptotic cells at 5 uM by flow cytometry (Rvb=0.72%); type: functional
HCT-116 [26] = assay: Induction of apoptosis in human HCT-116 cells assessed as early apoptotic cells at 1 uM by flow cytometry (Rvb=6.90%); type: functional
HT-29 [27] = assay: Induction of apoptosis in human HT-29 cells assessed as viable cells at 1 uM by flow cytometry (Rvb=83.94%); type: functional; conditions: read-out: Activity
HCT-116 [28] = assay: Induction of apoptosis in human HCT-116 cells assessed as viable cells at 1 uM by flow cytometry (Rvb=86.61%); type: functional; conditions: read-out: Activity
MDA-MB-231 [29] = assay: Induction of apoptosis in human MDA-MB-231 cells assessed as late apoptotic cells at 1 uM by flow cytometry (Rvb=0.72%); type: functional
MDA-MB-231 [30] = assay: Antiproliferative activity against human MDA-MB-231 cells assessed as growth inhibition by CCK-8 assay; type: functional, cell-based

Sequence of Cyclin-dependent kinase 4/cyclin D1 (P11802 whole entry): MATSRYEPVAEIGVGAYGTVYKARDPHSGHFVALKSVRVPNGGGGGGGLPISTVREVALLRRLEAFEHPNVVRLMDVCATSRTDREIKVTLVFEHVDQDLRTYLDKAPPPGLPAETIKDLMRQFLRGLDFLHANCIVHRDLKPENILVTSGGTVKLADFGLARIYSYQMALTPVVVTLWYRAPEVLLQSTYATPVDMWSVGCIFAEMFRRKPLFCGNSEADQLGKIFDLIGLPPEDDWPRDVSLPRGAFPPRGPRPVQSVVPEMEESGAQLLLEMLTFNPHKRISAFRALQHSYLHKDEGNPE
Sequence of Cyclin-dependent kinase 4/cyclin D1 (P24385 whole entry, further chain): as the sequence (P24385 whole entry) above

Compound: CCN1CCN(c2ccc(Nc3ncc4nc(C(C)=O)c(=O)n(C5CCCC5)c4n3)c(CO)c2)CC1
- IC50 [1]: 110 nM
- IC50 (CDK6/cyclin D1): 1210 nM

Compound: CC(=O)c1nc2cnc(Nc3ccc(N4CCOCC4)cc3)nc2n(C2CCCC2)c1=O
- IC50 [1]: 74.4 nM
- IC50 (CDK6/cyclin D1): 168 nM

Compound: CCN1CCN(c2ccc(Nc3ncc4nc(-c5ccco5)c(=O)n(C5CCCC5)c4n3)cc2)CC1
- IC50 [1]: 236 nM
- IC50 (CDK6/cyclin D1): 940 nM

Compound: CC(=O)c1c(C)c2cnc(Nc3ccc(N4CCNCC4)cn3)nc2n(C2CCCC2)c1=O [PALBOCICLIB]
- IC50 (A549): > 10 µM
- IC50 (HT-29 [2]): 9.3 µM
- IC50 (HCT-116 [3]): > 10000 nM

Compound: COc1cc(N2CCN(C)CC2)ccc1Nc1ncc2nc(C(C)=O)c(=O)n(C3CCCC3)c2n1
- IC50 [1]: 4480 nM
- IC50 (CDK6/cyclin D1): 4740 nM

Compound: CN[C@@H]1C[C@H]2O[C@@](C)([C@@H]1OC)n1c3ccccc3c3c4c(c5c6ccccc6n2c5c31)C(=O)NC4 [STAUROSPORINE]
- IC50 [4]: 0.0066 µM

Compound: CC(=O)c1nc2cnc(Nc3ccc(N4CCCC4)cc3)nc2n(C2CCCC2)c1=O
- IC50 [1]: 368 nM
- IC50 (CDK6/cyclin D1): > 10000 nM

Compound: CCN1CCN(c2ccc(Nc3ncc4nc(C(C)=O)c(=O)n(C5CCCC5)c4n3)c(N)c2)CC1
- IC50 [1]: 7890 nM
- IC50 (CDK6/cyclin D1): 7080 nM

Compound: O=c1c(-c2ccco2)nc2cnc(Nc3ccc(N4CCOCC4)cc3)nc2n1C1CCCC1
- IC50 [1]: > 10000 nM
- IC50 (CDK6/cyclin D1): > 10000 nM

Now from value to compound, other results behind:

- IC50 [1]: 36.3 nM
- IC50 (CDK6/cyclin D1): 138 nM
Compound: CC(=O)c1nc2cnc(Nc3ccc(N4CCN(C5CCCC5)CC4)cc3)nc2n(C2CCCC2)c1=O

- IC50 [1]: 30.1 nM
- IC50 (CDK6/cyclin D1): 48 nM
Compound: CC(=O)c1nc2cnc(Nc3ccc(N4CCC(N5CCN(C)CC5)CC4)cc3)nc2n(C2CCCC2)c1=O

- IC50 [4]: > 10 µM
- IC50 (A549): 9.2 µM
- IC50 (CDK7/Cyclin H/MNAT1): > 10 µM
- IC50 (HT-29 [2]): 4 µM
- IC50 (HCT-116 [3]): 1900 nM
- IC50 [1]: 16.7 nM
- IC50 [17]: 7.94 µM
- IC50 (CDK9/cyclin T1): 8.04 µM
- IC50 (CDK6/cyclin D1): 30.5 nM
- IC50 (MDA-MB-231 [30]): 1900 nM
Compound: CCN1CCN(c2ccc(Nc3ncc4nc(C(C)=O)c(=O)n(C5CCCC5)c4n3)cc2)CC1
- Activity (HCT-116 [5]): 0.57%
- Activity (HCT-116 [6]): 8.42%
- viability at 5 µM (HT-29 [7]): 68.7%
- Activity (HT-29 [8]): 1.21%
- Activity (HT-29 [9]): 0.99%
- Activity (HT-29 [10]): 12.67%
- Activity (HT-29 [11]): 14.86%
- Activity (HT-29 [12]): 15.39%
- Activity (MDA-MB-231 [13]): 4.16%
- viability at 5 µM (HCT-116 [14]): 70.2%
- viability at 1 µM (MDA-MB-231 [15]): 91.8%
- Activity (MDA-MB-231 [16]): 3.21%
- Activity (MDA-MB-231 [18]): 6.67%
- Activity (HCT-116 [19]): 13.39%
- Activity (HT-29 [20]): 15.42%
- Activity (HCT-116 [21]): 14.39%
- Activity (MDA-MB-231 [22]): 3.55%
- viability at 5 µM (MDA-MB-231 [23]): 88%
- Activity (HCT-116 [24]): 2.16%
- Activity (MDA-MB-231 [25]): 1.75%
- Activity (HCT-116 [26]): 9.54%
- viability at 1 µM (HT-29 [27]): 70.7%
- viability at 1 µM (HCT-116 [28]): 81.5%
- Activity (MDA-MB-231 [29]): 0.86%

- IC50 [4]: > 10 µM
- IC50 (A549): 3.6 µM
- IC50 (CDK7/Cyclin H/MNAT1): > 10 µM
- IC50 (HT-29 [2]): 1.5 µM
- IC50 (HCT-116 [3]): 2400 nM
- IC50 [1]: 36.6 nM
- IC50 [17]: > 10 µM
- IC50 (CDK9/cyclin T1): > 10 µM
- IC50 (CDK6/cyclin D1): 53.4 nM
- IC50 (MDA-MB-231 [30]): 2200 nM
Compound: CC(=O)c1nc2cnc(Nc3ccc(N4CCN(C)CC4)cc3)nc2n(C2CCCC2)c1=O

- IC50 [1]: 64.9 nM
- IC50 (CDK6/cyclin D1): 564 nM
Compound: CC(=O)c1nc2cnc(Nc3ccc(N4CCCCC4)cc3)nc2n(C2CCCC2)c1=O
